Calls of active or inactive are those of the source. Some results are limits rather than exact numbers.

Assay [1] is described as follows: HepG2 cell cytotoxicity, dose response, cytotoxicity control, ATP luminescence, cherry-pick, activator set 2 (AID 1053143). The assay is classed as functional, cell-based.
Assay [2] addresses T1, Oxysterols receptor LXR-beta (Homo sapiens, UniProt P55055).
T1 sequence (P55055 whole entry): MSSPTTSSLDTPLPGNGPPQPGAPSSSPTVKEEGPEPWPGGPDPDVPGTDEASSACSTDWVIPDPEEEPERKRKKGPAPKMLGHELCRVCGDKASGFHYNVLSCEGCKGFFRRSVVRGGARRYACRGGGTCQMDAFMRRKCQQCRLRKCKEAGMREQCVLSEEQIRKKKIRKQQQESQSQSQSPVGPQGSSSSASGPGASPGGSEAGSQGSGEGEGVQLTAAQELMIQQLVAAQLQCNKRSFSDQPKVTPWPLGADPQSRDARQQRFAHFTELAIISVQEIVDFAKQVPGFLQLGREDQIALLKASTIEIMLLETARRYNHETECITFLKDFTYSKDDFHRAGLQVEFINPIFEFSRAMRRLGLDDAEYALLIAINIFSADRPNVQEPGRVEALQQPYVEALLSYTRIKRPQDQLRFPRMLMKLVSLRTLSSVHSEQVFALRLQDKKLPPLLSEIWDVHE
It counts as functional, cell-based.

In assay [3] the target is T2, DNA repair protein RAD52 homolog (Homo sapiens, UniProt P43351).
T2 sequence (P43351 whole entry): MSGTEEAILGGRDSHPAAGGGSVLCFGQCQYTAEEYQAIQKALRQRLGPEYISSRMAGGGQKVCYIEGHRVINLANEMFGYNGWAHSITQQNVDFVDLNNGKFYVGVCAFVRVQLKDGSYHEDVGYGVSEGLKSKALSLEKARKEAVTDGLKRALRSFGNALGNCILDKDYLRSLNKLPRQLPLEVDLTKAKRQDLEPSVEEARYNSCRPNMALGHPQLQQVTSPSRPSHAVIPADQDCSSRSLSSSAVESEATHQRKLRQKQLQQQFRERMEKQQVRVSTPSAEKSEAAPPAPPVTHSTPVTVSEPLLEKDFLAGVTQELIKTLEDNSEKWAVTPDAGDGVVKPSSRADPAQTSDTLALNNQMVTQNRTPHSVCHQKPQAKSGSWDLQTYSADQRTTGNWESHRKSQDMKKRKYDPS
The assay is classed as functional, biochemical.

The nature of assay [4]: human group III sPLA2 inhibitors, dose response, biochemical, QFRET, IC50 (AID 743457).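 Also: green fluorescence rise as the enzyme cleaves BODIPY PC-A2 in liposomes; potency for inhibition of the enzyme.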
The target of assay [5] is T3, Rac GTPase-activating protein 1 (Homo sapiens, UniProt Q9H0H5).
T3 sequence (Q9H0H5 whole entry): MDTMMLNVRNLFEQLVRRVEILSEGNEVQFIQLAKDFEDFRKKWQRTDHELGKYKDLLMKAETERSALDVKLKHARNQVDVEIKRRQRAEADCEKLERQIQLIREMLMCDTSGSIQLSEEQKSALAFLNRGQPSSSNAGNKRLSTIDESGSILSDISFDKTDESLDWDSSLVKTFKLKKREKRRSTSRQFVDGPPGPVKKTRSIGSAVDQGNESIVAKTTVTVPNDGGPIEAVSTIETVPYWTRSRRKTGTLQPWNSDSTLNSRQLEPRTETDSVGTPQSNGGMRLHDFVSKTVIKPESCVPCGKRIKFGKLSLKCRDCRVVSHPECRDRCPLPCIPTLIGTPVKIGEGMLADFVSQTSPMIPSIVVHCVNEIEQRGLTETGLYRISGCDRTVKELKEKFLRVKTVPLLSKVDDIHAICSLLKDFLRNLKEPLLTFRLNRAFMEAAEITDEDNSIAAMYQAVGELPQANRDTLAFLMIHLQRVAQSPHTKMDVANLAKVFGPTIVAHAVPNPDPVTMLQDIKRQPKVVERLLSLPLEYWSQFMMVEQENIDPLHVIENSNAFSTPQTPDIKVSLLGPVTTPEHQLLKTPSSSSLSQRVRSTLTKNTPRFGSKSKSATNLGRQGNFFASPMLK
Put plainly: MgcRacGAP GTPase-activating activity inhibitors, confirmation, biochemical, ADP Hunter fluorescence, primary and confirmatory (AID 624330). The assay is classed as functional.

The nature of assay [6]: HeLa cell cytotoxicity, dose response, cytotoxicity control for MgcRacGAP inhibitor project (AID 624300). The assay is classed as functional.
A further assay deals with Nonstructural protein 1 (Influenza A virus, UniProt Q194T2). It counts as functional, Influenza A virus (A/California/07/2009(H1N1)).
Assay [7] addresses T4, Histone-lysine N-methyltransferase NSD2 (Homo sapiens, UniProt O96028).
T4 sequence (O96028 whole entry): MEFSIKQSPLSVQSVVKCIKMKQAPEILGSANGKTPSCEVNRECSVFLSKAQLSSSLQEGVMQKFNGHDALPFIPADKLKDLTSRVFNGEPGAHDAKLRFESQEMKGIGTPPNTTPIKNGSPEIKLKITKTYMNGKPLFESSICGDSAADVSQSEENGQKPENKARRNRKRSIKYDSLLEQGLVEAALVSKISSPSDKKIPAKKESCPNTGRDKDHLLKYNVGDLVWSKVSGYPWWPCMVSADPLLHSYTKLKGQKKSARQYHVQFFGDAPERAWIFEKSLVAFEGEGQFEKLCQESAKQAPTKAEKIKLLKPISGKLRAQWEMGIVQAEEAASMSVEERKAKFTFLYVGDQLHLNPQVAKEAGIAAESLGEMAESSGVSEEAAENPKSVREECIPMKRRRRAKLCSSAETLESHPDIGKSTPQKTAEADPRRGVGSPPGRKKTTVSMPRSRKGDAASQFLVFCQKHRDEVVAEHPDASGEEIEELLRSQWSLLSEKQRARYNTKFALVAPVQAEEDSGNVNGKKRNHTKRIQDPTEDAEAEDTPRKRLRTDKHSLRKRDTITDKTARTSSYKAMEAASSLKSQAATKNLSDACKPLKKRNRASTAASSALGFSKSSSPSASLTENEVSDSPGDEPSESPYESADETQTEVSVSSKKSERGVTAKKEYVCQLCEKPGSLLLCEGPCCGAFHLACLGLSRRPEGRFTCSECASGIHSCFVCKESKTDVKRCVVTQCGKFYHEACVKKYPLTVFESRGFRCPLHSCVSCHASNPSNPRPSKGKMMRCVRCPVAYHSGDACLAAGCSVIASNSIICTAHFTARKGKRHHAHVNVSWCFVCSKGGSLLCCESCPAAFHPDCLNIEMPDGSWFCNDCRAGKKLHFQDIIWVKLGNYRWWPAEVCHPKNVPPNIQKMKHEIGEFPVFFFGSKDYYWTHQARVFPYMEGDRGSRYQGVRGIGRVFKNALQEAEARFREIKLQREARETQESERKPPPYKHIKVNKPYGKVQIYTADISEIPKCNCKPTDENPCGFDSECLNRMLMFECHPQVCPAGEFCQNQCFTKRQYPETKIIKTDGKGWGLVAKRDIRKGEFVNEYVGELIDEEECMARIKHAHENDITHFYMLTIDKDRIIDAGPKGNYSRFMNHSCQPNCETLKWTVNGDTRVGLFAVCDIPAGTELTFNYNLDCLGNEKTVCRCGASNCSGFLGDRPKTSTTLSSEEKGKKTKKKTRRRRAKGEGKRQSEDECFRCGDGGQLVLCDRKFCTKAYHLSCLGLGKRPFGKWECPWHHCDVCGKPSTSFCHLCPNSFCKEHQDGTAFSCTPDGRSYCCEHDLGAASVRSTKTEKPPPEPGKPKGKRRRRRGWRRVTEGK
It counts as biochemical.

The target of assay [8] is 1-phosphatidylinositol 4,5-bisphosphate phosphodiesterase beta-3 (Homo sapiens, UniProt Q01970). Put plainly: Fluorescence-based biochemical high throughput dose response assay to identify inhibitors of phospholipase C isozymes (PLC-B3).
Assay [9] concerns the target 1-phosphatidylinositol 4,5-bisphosphate phosphodiesterase gamma-1 (Homo sapiens, UniProt P19174). The assay can be described thus: Counterscreen for inhibitors of phospholipase C isozymes (PLC-B3): Fluorescence-based biochemical high throughput dose response assay to identify inhibitors of phospholipase C isozymes (PLC-gamma1).
Assay [10] in a line: cells. It counts as functional, cell-based.
Assay [11] can be described thus: cells. The assay is classed as functional, cell-based. The source holds these as a separate data set.
Assay [12] in a line: NIH:OVCAR-3 ovarian cancer cell cytotoxicity, dose response, PAX8 inhibitor project, plate reader, dry powder samples (AID 743044). It counts as functional, cell-based.
Assay [13] in a line: cytotoxicity dependent on PAX8, dose response, cell-based, plate reader, dry powder (AID 743049). It counts as functional.
The nature of assay [14]: cytotoxicity in COV434 cells, dose response, cytotoxicity control for PAX8 inhibitor project, cell-based, plate reader, dry powder, SA7 (AID 743145). It counts as functional.
Assay [15] in a line: A2780 ovarian cancer cell cytotoxicity, dose response, cytotoxicity control, plate reader, dry powder samples (AID 743046). It counts as functional, cell-based.
Assay [16] can be described thus: cytotoxicity in OVCAR8 ovarian cancer cells, dose response, PAX8 project, cell-based, plate reader, dry powder samples (AID 743197). It counts as functional. To be noted: OVCAR-8.
A short description of assay [17]: PAX2 cell-based inhibition, dose response, selectivity assay for PAX8 inhibitor project, plate reader, dry powder samples (AID 743048).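 Also: HEK293 cells carrying a WT1 promoter luciferase reporter driven by expressed Pax2; potency is for inhibition of Pax2 driven reporter signal.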 It counts as functional.
Assay [18] can be described thus: cytotoxicity in OV-90 ovarian cancer cells, dose response, PAX8 inhibitor project, cell-based, plate reader, dry powder, SA8 (AID 743149). The assay is classed as functional.
A short description of assay [19]: cytotoxicity in COV362 ovarian cancer cells, dose response, cytotoxicity control for PAX8 inhibitor project, cell-based, plate reader, dry powder, SA12 (AID 743144). It counts as functional.
Assay [20] is described as follows: PAX5 activity inhibitors, dose response, selectivity assay for PAX8 inhibitor project, cell-based, plate reader, dry powder samples (AID 743047).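 Also: HEK293 cells carrying a Pax5 driven CD19 promoter luciferase reporter; potency of inhibitors that lower reporter luminescence.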 It counts as functional.
A further assay concerns the target Paired box protein Pax-8 (Homo sapiens, UniProt Q06710). The assay can be described thus: inhibitors of PAX8-driven TPO luciferase reporter, dose response, RMG-I cells, cherry-pick (AID 687027).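 Also: luciferase reporter driven by Pax8 target thyroperoxidase promoter measured by SteadyGlo luminescence.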 The assay is classed as functional, cell-based.
The nature of assay [21]: LGR2 antagonists, dose response, cell-based, HEK293, CRE-luciferase reporter, cherry pick, set 2 (AID 743343).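 Also: transfected cells were stimulated with diluted bursicon conditioned medium after compound addition.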 The assay is classed as functional.
A short description of assay [22]: MC4R antagonists, dose response, counter-screen for LGR2 antagonist project, cell-based, plate reader, cherry pick (AID 743444).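 Also: transfected HEK 293 cells stimulated with alpha-MSH peptide; potency of inhibitors of the alpha-MSH evoked signal.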 The assay is classed as functional.
The nature of assay [23]: A549 cell cytotoxicity, dose response, cytotoxicity control, plate reader, cherry-pick, antagonist series (AID 743412). It counts as functional, cell-based.

Chain of 1-phosphatidylinositol 4,5-bisphosphate phosphodiesterase gamma-1 (P19174 whole entry): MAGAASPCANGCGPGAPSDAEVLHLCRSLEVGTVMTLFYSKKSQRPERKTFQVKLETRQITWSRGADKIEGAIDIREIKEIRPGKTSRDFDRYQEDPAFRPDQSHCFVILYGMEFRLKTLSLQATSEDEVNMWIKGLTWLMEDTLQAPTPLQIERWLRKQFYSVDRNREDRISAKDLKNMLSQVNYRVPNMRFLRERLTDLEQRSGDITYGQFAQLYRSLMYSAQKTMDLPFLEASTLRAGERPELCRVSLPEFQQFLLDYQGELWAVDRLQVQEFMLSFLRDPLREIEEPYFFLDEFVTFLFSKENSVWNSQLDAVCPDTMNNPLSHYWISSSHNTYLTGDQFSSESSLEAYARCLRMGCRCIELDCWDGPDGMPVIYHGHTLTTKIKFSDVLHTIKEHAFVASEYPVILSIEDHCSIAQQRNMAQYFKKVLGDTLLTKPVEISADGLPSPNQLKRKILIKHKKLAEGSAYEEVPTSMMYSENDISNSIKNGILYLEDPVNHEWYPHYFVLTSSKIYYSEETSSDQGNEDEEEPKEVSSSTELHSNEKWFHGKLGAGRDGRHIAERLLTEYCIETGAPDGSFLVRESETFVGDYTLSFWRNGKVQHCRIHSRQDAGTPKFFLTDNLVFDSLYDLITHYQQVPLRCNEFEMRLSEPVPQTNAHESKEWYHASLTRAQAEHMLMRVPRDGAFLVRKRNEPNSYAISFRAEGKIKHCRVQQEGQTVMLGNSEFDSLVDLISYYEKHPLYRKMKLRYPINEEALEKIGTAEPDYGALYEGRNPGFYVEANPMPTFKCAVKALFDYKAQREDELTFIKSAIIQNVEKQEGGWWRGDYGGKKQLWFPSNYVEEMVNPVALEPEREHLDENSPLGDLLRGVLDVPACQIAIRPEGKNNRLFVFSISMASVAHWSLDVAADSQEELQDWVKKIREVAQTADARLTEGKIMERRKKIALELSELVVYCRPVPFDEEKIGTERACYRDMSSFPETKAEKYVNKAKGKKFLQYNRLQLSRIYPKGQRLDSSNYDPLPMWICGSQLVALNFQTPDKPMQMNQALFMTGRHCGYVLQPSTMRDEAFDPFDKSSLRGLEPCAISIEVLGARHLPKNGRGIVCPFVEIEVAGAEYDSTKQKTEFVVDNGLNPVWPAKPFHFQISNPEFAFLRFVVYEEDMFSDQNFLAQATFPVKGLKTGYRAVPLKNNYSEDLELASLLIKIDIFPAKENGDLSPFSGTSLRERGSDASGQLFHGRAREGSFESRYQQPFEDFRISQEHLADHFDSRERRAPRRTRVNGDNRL
Chain of 1-phosphatidylinositol 4,5-bisphosphate phosphodiesterase beta-3 (Q01970 whole entry): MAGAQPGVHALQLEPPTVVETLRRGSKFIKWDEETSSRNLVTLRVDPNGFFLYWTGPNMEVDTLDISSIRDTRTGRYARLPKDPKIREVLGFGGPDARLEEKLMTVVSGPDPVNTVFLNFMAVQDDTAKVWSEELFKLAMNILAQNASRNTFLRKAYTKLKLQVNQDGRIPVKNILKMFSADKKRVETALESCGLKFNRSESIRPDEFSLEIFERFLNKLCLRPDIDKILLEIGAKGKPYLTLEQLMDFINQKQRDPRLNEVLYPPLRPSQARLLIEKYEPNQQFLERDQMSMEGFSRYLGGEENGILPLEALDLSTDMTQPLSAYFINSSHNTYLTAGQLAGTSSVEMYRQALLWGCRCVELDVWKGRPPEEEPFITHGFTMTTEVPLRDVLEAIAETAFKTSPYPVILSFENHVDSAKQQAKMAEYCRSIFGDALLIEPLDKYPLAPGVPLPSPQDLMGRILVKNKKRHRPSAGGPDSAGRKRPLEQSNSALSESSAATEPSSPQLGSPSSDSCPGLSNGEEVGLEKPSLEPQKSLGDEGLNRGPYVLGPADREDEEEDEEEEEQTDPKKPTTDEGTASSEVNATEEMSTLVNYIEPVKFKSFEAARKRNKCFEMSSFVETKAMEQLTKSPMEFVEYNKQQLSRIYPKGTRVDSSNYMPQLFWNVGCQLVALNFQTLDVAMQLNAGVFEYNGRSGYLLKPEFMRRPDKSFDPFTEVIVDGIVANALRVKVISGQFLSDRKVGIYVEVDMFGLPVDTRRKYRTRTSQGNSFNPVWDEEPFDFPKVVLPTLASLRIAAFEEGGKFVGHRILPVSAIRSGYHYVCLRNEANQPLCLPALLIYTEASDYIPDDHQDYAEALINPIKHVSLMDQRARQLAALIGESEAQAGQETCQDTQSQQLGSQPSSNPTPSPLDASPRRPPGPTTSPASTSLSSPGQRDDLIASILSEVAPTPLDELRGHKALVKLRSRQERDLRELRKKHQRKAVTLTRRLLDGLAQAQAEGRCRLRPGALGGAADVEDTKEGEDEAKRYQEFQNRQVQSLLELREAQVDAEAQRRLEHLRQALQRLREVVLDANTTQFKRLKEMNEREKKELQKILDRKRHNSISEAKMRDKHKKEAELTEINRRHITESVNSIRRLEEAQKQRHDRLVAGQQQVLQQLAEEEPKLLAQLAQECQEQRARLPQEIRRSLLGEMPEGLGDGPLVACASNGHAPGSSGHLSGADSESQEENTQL
Chain of Paired box protein Pax-8 (Q06710 whole entry): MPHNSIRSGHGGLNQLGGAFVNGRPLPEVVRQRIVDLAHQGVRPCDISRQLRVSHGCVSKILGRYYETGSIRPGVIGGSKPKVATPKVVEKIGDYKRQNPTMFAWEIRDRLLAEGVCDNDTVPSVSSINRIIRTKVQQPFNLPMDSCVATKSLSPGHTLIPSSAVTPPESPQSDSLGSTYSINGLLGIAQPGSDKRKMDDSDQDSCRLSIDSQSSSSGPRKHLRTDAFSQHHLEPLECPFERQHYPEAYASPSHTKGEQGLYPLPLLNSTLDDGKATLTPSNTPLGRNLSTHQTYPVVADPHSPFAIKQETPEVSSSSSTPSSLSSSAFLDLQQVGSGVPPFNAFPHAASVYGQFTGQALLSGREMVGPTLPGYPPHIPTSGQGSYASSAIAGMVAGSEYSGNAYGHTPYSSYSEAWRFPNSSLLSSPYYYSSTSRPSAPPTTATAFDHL
Chain of Nonstructural protein 1 (Q194T2 whole entry): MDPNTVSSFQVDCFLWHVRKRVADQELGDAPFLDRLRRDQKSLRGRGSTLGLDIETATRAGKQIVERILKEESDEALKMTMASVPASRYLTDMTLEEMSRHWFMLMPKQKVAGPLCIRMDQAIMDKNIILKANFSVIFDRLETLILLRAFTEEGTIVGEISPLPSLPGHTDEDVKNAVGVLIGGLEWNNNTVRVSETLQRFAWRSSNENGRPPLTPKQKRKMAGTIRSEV

Take `CC(=O)C(=CNc1cc(-c2ccc(C)cc2)nn1-c1ccccc1)C(C)=O`: in assay [1], the concentration at half-maximal activity (AC50) was 26 µM (active).

With `CCN(CC)S(=O)(=O)c1ccc(C(=O)OCC(=O)Nc2ccc(-c3nc4ccc(C)cc4s3)cc2)cc1`, the EC50 in assay [2] was > 67.5 µM (inactive).

As to `Cc1cc2cc(CCNC(=O)c3cccs3)c(O)nc2cc1C`, in assay [1], the AC50 was 26 µM (active).

Regarding `CC[n+]1ccc(/C=C/c2ccc(N(C)C)cc2)c2ccccc21`, the values for the AC50 in assay [3] and in [7] were 2.21 µM (active) and 13.4 µM (active), respectively. In addition, the values for the IC50 (in assay [4]; in assay [5]; at Nonstructural protein 1) were 24.6 µM (inactive), 36.1 µM (active) and 9.07 µM (active), respectively. Also, the CC50 in [6] was 49.2 µM (active).

As for `COC(=O)C(C)(C)c1cccnc1C#N`, the IC50 in [8] was > 122 µM (inactive); in assay [9] it was 2.7 µM (active).

With `CSc1ccc(/C=N/Nc2ccc(Cl)c(C(=O)O)c2)cc1`, the EC50 in “cells [10]” is 7.23 µM (active); in “cells [11]”, > 350 µM (not active); in assay [2], > 67.5 µM (inactive).

As to `CCCC#Cc1ccc([C@H]2[C@@H](C#N)N(C(=O)C3CCCCC3)[C@H]2CO)cc1`, the AC50 in [12] was 29.6 µM (active); in [13], 13.2 µM (active); in assay [14], 30 µM (active); in assay [15] it was 23.9 µM (active); in assay [16], 30.3 µM (active); in assay [17], 7.11 µM (active). Besides, the AC50 in assay [18] is 28 µM (active); in [19], 49.9 µM (active); in assay [20], 3.5 µM (active); at Paired box protein Pax-8 it was 12.7 µM (active).

In the case of `CCCNC(=O)C[C@H]1CC[C@H]2[C@@H](COc3ccc(NC(=O)c4cncs4)cc3C(=O)N2C)O1`, the IC50 was 55.4 µM (inactive) in assay [8] and 59.1 µM (inactive) in assay [9].

For the compound `CN1c2ccc(-c3ccc(F)cc3)cc2[C@H]2[C@H](CCN2C(=O)Nc2ccc(F)cc2)[C@H]1CO`, the figures for the AC50 in assay [21], in [22] and in [23] were 18.6 µM (active), 18.4 µM (active) and 24.3 µM (active), respectively.

The values are drawn from ChEMBL document CHEMBL1201862, “PubChem BioAssay data set” (2004).
